The text below walks through data of patent publication US20210403573A1, “METHODS AND PHARMACEUTICAL COMPOSITIONS FOR THE TREATMENT OF FIBROSIS WITH AGENTS CAPABLE OF INHIBITING THE ACTIVATION OF MUCOSAL-ASSOCIATED INVARIANT T (MAIT) CELLS” (INSERM (Institut National de la Santé et de la Recherche …, priority 2017, published 2021).

The assay deals with T1, MR1 (Homo sapiens, UniProt Q95460).
T1 construct: endogenous in cells; host or cells: human hepatic myofibroblasts (HMF), alone or in co-culture with MAIT cells
In words: Surface expression of MR1 on hepatic myofibroblasts by flow cytometry. It counts as cell-based. The note with it: 1 μM, 2 hrs at 37° C., PE-conjugated anti MR1 antibody (26.5). The method, then: Analysis of Surface Expression of MR1 on Hepatic Myofibroblasts by Flow Cytometry
Hepatic myofibroblast cultures or HMF/MAIT cell co-cultures were exposed to 1 μM Acetyp 6-formylpterin (Ac 6-FP) (Schircks Laboratories, Switzerland) for 2 hrs at 37° C. Cells were then washed, trypsinised, labeled with PE-conjugated anti MR1 antibody (26.5)/isotype control and subjected to flow cytometric analysis.
For orientation: A flow cytometer gives signals particle by particle.

T1 sequence (P61769 21-119): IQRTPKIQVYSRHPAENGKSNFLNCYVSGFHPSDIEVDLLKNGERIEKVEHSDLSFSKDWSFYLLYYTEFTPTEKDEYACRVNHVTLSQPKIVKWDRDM
T1 sequence (Q95460 23-341): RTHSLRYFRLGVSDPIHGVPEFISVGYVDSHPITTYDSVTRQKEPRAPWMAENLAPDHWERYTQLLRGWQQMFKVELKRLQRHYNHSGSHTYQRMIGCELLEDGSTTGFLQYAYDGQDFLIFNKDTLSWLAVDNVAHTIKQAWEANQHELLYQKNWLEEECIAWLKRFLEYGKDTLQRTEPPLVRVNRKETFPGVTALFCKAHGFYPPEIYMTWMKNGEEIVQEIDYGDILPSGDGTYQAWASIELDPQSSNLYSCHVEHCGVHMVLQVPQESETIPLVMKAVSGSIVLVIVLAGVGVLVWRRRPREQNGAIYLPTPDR

Regarding “Acetyl-6-formyl-pterin [Acetyl-6-formyl-pterin (6FP)]”, the “surface expression of MR1 on hepatic myofibroblasts” value is “enhanced”.
